Several values for one entry are separate records, joined by “and”; a condition that tells them apart may be missing. Equal values may be shown once. Toxic doses and inconclusive results are not listed. Rule as the data show it: active = T/C of 150% or more; inactive = T/C below 125%.
Tested on: L1210 leukemia ip in BDF1 mice, survival T/C
Assay: NCI In Vivo Anticancer Drug Screen. Data for tumor model L1210 Leukemia (intraperitoneal) in B6D2F1 (BDF1) mice
Details: endpoint: mean survival time, higher = longer survival
In short: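 Transplanted-tumor mice were given test agent; controls received vehicle only. Survival readings from the two groups were divided (treated over control).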

[1] = dose: 100.0 mg/kg/injection, schedule: Q04DX003 (ip), vehicle: saline
[2] = dose: 200.0 mg/kg/injection, schedule: Q04DX003 (ip), vehicle: saline
[3] = dose: 400.0 mg/kg/injection, schedule: Q04DX003 (ip), vehicle: saline
[4] = dose: 100.0 mg/kg/injection, schedule: Q04DX003 (ip), vehicle: saline with Tween-80
[5] = dose: 100.0 mg/kg/injection, schedule: Q04DX003 (ip), vehicle: Klucel (hydroxypropylcellulose) (HPC)
[6] = dose: 200.0 mg/kg/injection, schedule: Q04DX003 (ip), vehicle: Klucel (hydroxypropylcellulose) (HPC)
[7] = dose: 400.0 mg/kg/injection, schedule: Q04DX003 (ip), vehicle: Klucel (hydroxypropylcellulose) (HPC)
[8] = dose: 50.0 mg/kg/injection, schedule: Q01DX001 (ip), vehicle: saline
[9] = dose: 100.0 mg/kg/injection, schedule: Q01DX001 (ip), vehicle: saline
[10] = dose: 200.0 mg/kg/injection, schedule: Q01DX001 (ip), vehicle: saline
[11] = dose: 400.0 mg/kg/injection, schedule: Q01DX001 (ip), vehicle: saline
[12] = dose: 12.5 mg/kg/injection, schedule: Q04DX003 (ip), vehicle: saline
[13] = dose: 25.0 mg/kg/injection, schedule: Q04DX003 (ip), vehicle: saline

Measured: T/C

CC(=O)C(C)=P(c1ccccc1)(c1ccccc1)c1ccccc1
inactive: dose: 25.0 mg/kg/injection, schedule: Q01DX009 (ip), vehicle: saline 101 % of control | dose: 50.0 mg/kg/injection, schedule: Q01DX009 (ip), vehicle: saline 102 % of control | dose: 100.0 mg/kg/injection, schedule: Q01DX009 (ip), vehicle: saline 96 % of control | [1] 98 % of control | [2] 88 % of control | [3] 88 % of control

O=c1oc2c(-c3ccccc3)cccc2c(O)c1-c1ccccc1
inactive: dose: 25.0 mg/kg/injection, schedule: Q04DX003 (ip), vehicle: saline with Tween-80 96 % of control | dose: 50.0 mg/kg/injection, schedule: Q04DX003 (ip), vehicle: saline with Tween-80 101 % of control | [4] 93 % of control | [1] 95 % of control | [2] 93 % of control | [3] 93 % of control

CCC(=O)Oc1c(CC=C(C)C)c(OC(=O)CC)c2ccccc2c1OC(=O)CC
inactive: dose: 100.0 mg/kg/injection, schedule: Q01DX009 (ip), vehicle: Klucel (hydroxypropylcellulose) (HPC) 93 % of control | [5] 90 % of control | dose: 200.0 mg/kg/injection, schedule: Q01DX009 (ip), vehicle: Klucel (hydroxypropylcellulose) (HPC) 93 % of control | [6] 94 % of control | dose: 400.0 mg/kg/injection, schedule: Q01DX009 (ip), vehicle: Klucel (hydroxypropylcellulose) (HPC) 88 % of control | [7] 96 % of control

CCOC(=O)c1[nH]c2c(OCC)nc(OCC)nc2c1Br
inactive: [8] 106 % of control | [9] 112 % of control | [10] 104 % of control | [11] 95 % of control

CC(C(=O)c1ccccc1)C(N[N+](C)(C)C)c1ccccc1 (configuration not stated)
inactive: dose: 6.25 mg/kg/injection, schedule: Q04DX003 (ip), vehicle: saline 91 % of control | [12] 97 % of control | [13] 97 % of control

O=c1[nH]nc(-c2ccccc2)c2ccccc12
inactive: [8] 100 % of control | [9] 97 % of control | [10] 93 % of control | [11] 100 % of control

CCCCCCCCCCCC(=O)NC(=S)Nc1ccccc1OCC
inactive: [5] 89 % of control | [6] 90 % of control | [7] 89 % of control

CC1=C(C)Cc2c(-c3ccc(Cl)cc3)oc(-c3ccc(Cl)cc3)c2C1
inactive: [5] 100 % of control | [6] 97 % of control | [7] 94 % of control

CCCCCCCCCCCCCCCC(=O)N(CCCN)CCCN
inactive: dose: 12.5 mg/kg/injection, schedule: Q01DX009 (ip), vehicle: saline with Tween-80 109 % of control | [12] 98 % of control | [13] 103 % of control | dose: 50.0 mg/kg/injection, schedule: Q04DX003 (ip), vehicle: saline 101 % of control

C=CCCCCCCCCC(=O)NC(C)COC (configuration not stated)
inactive: dose: 50.0 mg/kg/injection, schedule: Q01DX009 (ip), vehicle: saline with Tween-80 103 % of control | dose: 100.0 mg/kg/injection, schedule: Q01DX009 (ip), vehicle: saline with Tween-80 103 % of control | dose: 200.0 mg/kg/injection, schedule: Q01DX009 (ip), vehicle: saline with Tween-80 100 % of control

OC1(C2(O)c3ccccc3Oc3ccccc32)c2ccccc2Oc2ccccc21
inactive: [1] 95 % of control | [2] 95 % of control | [3] 97 % of control

CCc1c(Cl)nc(N)nc1Cl
inactive: dose: 100.0 mg/kg/injection, schedule: Q01DX Z (ip), vehicle: methylcellulose (MC) 95 % of control | dose: 200.0 mg/kg/injection, schedule: Q01DX Z (ip), vehicle: methylcellulose (MC) 89 % of control

Cl[Si](Cc1ccccc1)(Cc1ccccc1)Cc1ccccc1
inactive: [9] 93 % of control | [10] 88 % of control | [11] 95 % of control

Nc1cc(Cl)cc2c1nc(NCCO)c1ccccc12
inactive: [5] 97 % of control | [6] 90 % of control | [7] 98 % of control

CC(=O)Oc1cc2c(cc1OC(C)=O)C(=O)CCC=C2
inactive: dose: 25.0 mg/kg/injection, schedule: Q04DX003 (ip), vehicle: Klucel (hydroxypropylcellulose) (HPC) 104 % of control | dose: 50.0 mg/kg/injection, schedule: Q04DX003 (ip), vehicle: Klucel (hydroxypropylcellulose) (HPC) 106 % of control | dose: 100.0 mg/kg/injection, schedule: Q01DX009 (ip), vehicle: saline sonified 95 % of control | [5] 98 % of control and 115 % of control | dose: 200.0 mg/kg/injection, schedule: Q01DX009 (ip), vehicle: saline sonified 97 % of control | [6] 102 % of control | dose: 400.0 mg/kg/injection, schedule: Q01DX009 (ip), vehicle: saline sonified 99 % of control | [7] 100 % of control

S=c1[nH]ccc2n[nH]nc12
inactive: [4] 101 % of control | dose: 200.0 mg/kg/injection, schedule: Q04DX003 (ip), vehicle: saline with Tween-80 98 % of control | dose: 400.0 mg/kg/injection, schedule: Q04DX003 (ip), vehicle: saline with Tween-80 101 % of control

O=[N+]([O-])c1ccc(C2=Cc3cccn3-c3ccccc3S2(=O)=O)cc1
inactive: [5] 96 % of control | [6] 95 % of control | [7] 98 % of control

— PubChem BioAssay AID248 (DTP/NCI, 2004)
